Laboratory results as given in paper PMC5879690 (Proceedings of the National Academy of Sciences of the …, 2018).

Biological target: indoleamine 2,3-dioxygenase (IDO1) (Homo sapiens, UniProt P14902)
Test: enzyme activity assay, N-formylkynurenine production
Type: biochemical

Sequence of indoleamine 2,3-dioxygenase (IDO1) (P14902 whole entry): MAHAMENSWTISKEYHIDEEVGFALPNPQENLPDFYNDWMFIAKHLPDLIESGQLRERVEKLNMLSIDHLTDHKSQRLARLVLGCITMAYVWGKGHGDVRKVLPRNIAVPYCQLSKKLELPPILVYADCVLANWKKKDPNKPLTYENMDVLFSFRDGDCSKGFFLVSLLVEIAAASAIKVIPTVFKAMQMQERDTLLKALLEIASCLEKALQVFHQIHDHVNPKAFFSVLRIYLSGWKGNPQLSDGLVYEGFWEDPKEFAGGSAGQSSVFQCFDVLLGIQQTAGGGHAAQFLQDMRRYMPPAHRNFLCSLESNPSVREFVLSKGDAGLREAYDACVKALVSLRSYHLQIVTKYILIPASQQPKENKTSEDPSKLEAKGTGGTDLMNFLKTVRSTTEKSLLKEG

N[C@H](Cc1c[nH]c2ccccc12)C(=O)O [D-tryptophan]
enzyme activity assay, N-formylkynurenine production: D-tryptophan was used as the substrate, which unlike L-tryptophan, does not cause substrate inhibition
